Source: patent US6461997B1, “Triazole sulfones having herbicidal activity” (Monsanto Technology LLC, priority 1999, dated 2002)

What follows are compounds tested on AGSST (creeping bentgrass) (assay: Post-emergence herbicidal activity, cool season). Conditions: abraded plants sprayed at 300, 100, 30 and 10 g/ha; about 14 days after treatment.
Type: in vivo, Agrostis stolonifera
Description: (§1) In another set of tests, the post-emergence activity of compounds of this invention was evaluated on the cool season species listed above. The following procedure was used.
(§2) A pre-prepared topsoil mixture (described above) was placed in a pot and compacted to a depth of 1.0 to 1.25 cm from the top of the pot. Seeds of each of several monocotyledonous and dicotyledonous annual plant species were placed on top of the soil. The seeds were covered with a mixture of 50% topsoil and 50% Rediearth™ in sufficient quantity to level-fill the pots. The pots were then placed on a greenhouse bench and subirrigated as needed.
(§3) When plants growing from the seeds had emerged and reached a suitable growth stage for post-emergence treatment, typically 9 to 14 days after planting, above-ground parts of the plants were subjected to a pre-treatment involving abrasion to create greater opportunity for foliar uptake of subsequently applied compounds. Abrasion was performed using garnet 200w particles applied with a Sears Craftsman hand-held sandblaster operated at approximately 850 kPa (50 psig) pressure.
(§4) A known amount of each test compound dissolved or suspended in an appropriate organic solvent was diluted with a 50:50 mix of acetone and water and applied to the plants by spraying with a standard spray nozzle in a spray volume of […] at a spray pressure of 511 kPa (30 psig). Only the compounds of Examples 1, 8-15 and 17-22 were included in post-emergence tests. Application rates for these compounds were 300, 100, 30 and 10 g/ha. Control plants were abraded but not sprayed.
(§5) After treatment the plants were placed in a greenhouse with an 18/13° C. day/night temperature regime and were subsequently watered as needed for growth. Approximately 14 days after treatment, the plants were observed and herbicidal efficacy recorded as percent inhibition by comparison with control plants. GR80 values were assigned for each compound as described above for the pre-emergence tests.

SMILES | Post-emergence activity GR80, AGSST
CCN(CC)C(=O)n1cnc(S(=O)(=O)C(F)(F)SCc2ccccc2)n1 [Example 10] | [empty]
CCN(CC)C(=O)n1cnc(S(=O)(=O)C(F)(F)SC)n1 [Example 9] | [empty]

These compounds were tested on CIRAR (canada thistle (seedling)) (assay: Pre-emergence herbicidal activity, warm season). Conditions: GR80 = lowest tested rate (300, 100, 30, 10 g/ha) with 80% or greater inhibition; approx. 14 days after treating; 30/21° C.
Type: in vivo, Cirsium arvense
Summary of the method: (§6)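 GR80 values derive from percent inhibition relative to untreated plants, read roughly 14 days after sowing and pre-emergence soil-surface treatment (compound in 50:50 acetone/water; rates typically 10, 30, 100, 300 g/ha). Warm-season weeds grew at 30/21° C day/night, cool-season ones at 18/13° C; an asterisk marks activity without reaching 80% at the highest rate.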

SMILES | Pre-emergence activity (GR80) CIRAR [g/ha]
CCN(CC)C(=O)n1cnc(S(=O)(=O)C(F)(F)SCc2ccccc2)n1 [Example 10] | 300
CCN(CC)C(=O)n1cnc(S(=O)(=O)C(F)(F)SC)n1 [Example 9] | 100

The compounds below were run on AEGCY (jointed goatgrass) (assay: Post-emergence herbicidal activity, cool season). Conditions: abraded plants sprayed at 300, 100, 30 and 10 g/ha; about 14 days after treatment.
Type: in vivo, Aegilops cylindrica
Description: as §1, §2, §3, §4, §5

SMILES | Post-emergence activity GR80, AEGCY
CCN(CC)C(=O)n1cnc(S(=O)(=O)C(F)(F)SCc2ccccc2)n1 [Example 10] | [empty]
CCN(CC)C(=O)n1cnc(S(=O)(=O)C(F)(F)SC)n1 [Example 9] | [empty]

The compounds below were run on SETFA (giant foxtail) (assay: Pre-emergence herbicidal activity, warm season). Conditions: GR80 = lowest tested rate (300, 100, 30, 10 g/ha) with 80% or greater inhibition; approx. 14 days after treating; 30/21° C.
Type: in vivo, Setaria faberi
Summary of the method: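 Activity is expressed as the rate giving 80% inhibition, with 300, 100, 30 and 10 g/ha typically tested. An asterisk marks activity short of 80% at the top rate. Warm-season grasses were held at 30/21 °C; cool-season blackgrass and wild buckwheat at 18/13 °C; scoring at about 14 days.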

SMILES | Pre-emergence activity (GR80) SETFA [g/ha]
CCN(CC)C(=O)n1cnc(S(=O)(=O)C(F)(F)SCc2ccccc2)n1 [Example 10] | 100
CCN(CC)C(=O)n1cnc(S(=O)(=O)C(F)(F)SC)n1 [Example 9] | 100

The compounds below were run on SINAR (wild mustard) (assay: Pre-plant incorporated (PPI) herbicidal activity, cool season). Conditions: weed, PPI application, 10 g/ha.
Type: in vivo, Sinapis arvensis
Description: (§7) In another set of tests, the pre-plant incorporated (PPI) activity of compounds of this invention was evaluated on the same species as for the pre-emergence tests described above. In the PPI tests the following procedure, designed to simulate PPI application, was used.
(§8) A pre-prepared topsoil mixture (described above) was placed in a pot and compacted to a depth of 1.0 to 1.25 cm from the top of the pot. Seeds of each of several monocotyledonous and dicotyledonous annual plant species were placed on top of the soil. A sufficient quantity of soil to cover the seeds and level fill the pot was weighed into an open container. A known amount of the test compound was dissolved or suspended in an organic solvent and applied by spraying to this cover soil. The cover soil was thoroughly mixed to distribute the test compound throughout the cover soil, and was then applied as a cover layer over the seeds. Untreated soil was used as a cover layer for control pots. After treatment the plants were placed in a greenhouse where they received 0.64 cm of overhead irrigation. All subsequent watering consisted of a light overhead mist and/or subirrigation as needed for germination and growth. Tables 9 and 10 below relate to warm season plant species which were placed after pre-emergence treatment in a greenhouse with a 30/21° C. day/night temperature regime. Tables 11 and 12 below relates to cool season plant species placed after pre-emergence treatment in a greenhouse or growth chamber with an 18/13° C. day/night temperature regime. Only the compounds of Examples 1, 6, 8, 11, 13 and 15-20 were included in PPI tests.
(§9) Approximately 14 days after planting and treating, the plants were observed and herbicidal efficacy recorded as percent inhibition by comparison with untreated plants.

SMILES | Percent inhibition SINAR [%]
CCN(CC)C(=O)n1cnc(S(=O)(=O)C(F)(F)SCc2ccccc2)n1 [Example 10] | 0

Same assay, conditions: weed, PPI application, 30 g/ha

SMILES | Percent inhibition SINAR [%]
CCN(CC)C(=O)n1cnc(S(=O)(=O)C(F)(F)SCc2ccccc2)n1 [Example 10] | 90
CCN(CC)C(=O)n1cnc(S(=O)(=O)C(F)(F)SC)n1 [Example 9] | 100

Same assay, conditions: weed, PPI application, 100 g/ha

SMILES | Percent inhibition SINAR [%]
CCN(CC)C(=O)n1cnc(S(=O)(=O)C(F)(F)SCc2ccccc2)n1 [Example 10] | 100
CCN(CC)C(=O)n1cnc(S(=O)(=O)C(F)(F)SC)n1 [Example 9] | 100

Same assay, conditions: weed, PPI application, 300 g/ha

SMILES | Percent inhibition SINAR [%]
CCN(CC)C(=O)n1cnc(S(=O)(=O)C(F)(F)SCc2ccccc2)n1 [Example 10] | 80
CCN(CC)C(=O)n1cnc(S(=O)(=O)C(F)(F)SC)n1 [Example 9] | 70

Same assay, conditions: weed, PPI application, 900 g/ha

SMILES | Percent inhibition SINAR [%]
CCN(CC)C(=O)n1cnc(S(=O)(=O)C(F)(F)SCc2ccccc2)n1 [Example 10] | 100
CCN(CC)C(=O)n1cnc(S(=O)(=O)C(F)(F)SC)n1 [Example 9] | 100

The compounds below were run on SOLNI (black nightshade) (assay: Pre-emergence herbicidal activity, warm season). Conditions: GR80 = lowest tested rate (300, 100, 30, 10 g/ha) with 80% or greater inhibition; approx. 14 days after treating; 30/21° C.
Type: in vivo, Solanum nigrum
Summary of the method: as §6

SMILES | Pre-emergence activity (GR80) SOLNI [g/ha]
CCN(CC)C(=O)n1cnc(S(=O)(=O)C(F)(F)SCc2ccccc2)n1 [Example 10] | 300
CCN(CC)C(=O)n1cnc(S(=O)(=O)C(F)(F)SC)n1 [Example 9] | 100

What follows are compounds tested on ABUTH (velvetleaf) (assay: Pre-plant incorporated (PPI) herbicidal activity, warm season). Conditions: PPI application, 10 g/ha.
Type: in vivo, Abutilon theophrasti
Description: as §7, §8, §9

SMILES | Percent inhibition ABUTH [%]
CCN(CC)C(=O)n1cnc(S(=O)(=O)C(F)(F)SCc2ccccc2)n1 [Example 10] | 0

Same assay, conditions: PPI application, 30 g/ha

SMILES | Percent inhibition ABUTH [%]
CCN(CC)C(=O)n1cnc(S(=O)(=O)C(F)(F)SCc2ccccc2)n1 [Example 10] | 0
CCN(CC)C(=O)n1cnc(S(=O)(=O)C(F)(F)SC)n1 [Example 9] | 0

Same assay, conditions: PPI application, 100 g/ha

SMILES | Percent inhibition ABUTH [%]
CCN(CC)C(=O)n1cnc(S(=O)(=O)C(F)(F)SCc2ccccc2)n1 [Example 10] | 0
CCN(CC)C(=O)n1cnc(S(=O)(=O)C(F)(F)SC)n1 [Example 9] | 0

Same assay, conditions: PPI application, 300 g/ha

SMILES | Percent inhibition ABUTH [%]
CCN(CC)C(=O)n1cnc(S(=O)(=O)C(F)(F)SCc2ccccc2)n1 [Example 10] | 30
CCN(CC)C(=O)n1cnc(S(=O)(=O)C(F)(F)SC)n1 [Example 9] | 60

Same assay, conditions: PPI application, 900 g/ha

SMILES | Percent inhibition ABUTH [%]
CCN(CC)C(=O)n1cnc(S(=O)(=O)C(F)(F)SCc2ccccc2)n1 [Example 10] | 50
CCN(CC)C(=O)n1cnc(S(=O)(=O)C(F)(F)SC)n1 [Example 9] | 90
